Reference: PMC8742467, “Therapeutical interference with the epigenetic landscape of germ cell tumors: a comparative drug study and new mechanistical insights” (Clinical Epigenetics, 2022)
Where two headings read alike, the source gives them in different places.

Assays:
[1] = system: TCam-2 (SE); assay: XTT cell viability assay, TCam-2; assay type: cell-based; settings: Homo sapiens, read-out: EC50 colour/symbol code, SE TCam-2
Protocol: (§1) The […] (XTT) assays were performed as described previously. In summary, for GCT and fibroblast cell lines 5 × 10^3 cells (3 × 10^3 for UC, PCa and RCC cell lines) per 96-well were seeded and different drug concentrations (see Additional file 2: Fig. S2, Additional file 3: Fig. S3) or corresponding solvents were added to the cells the following day. For drug details see Additional file 12: Table S2 C. Each condition was analyzed in four technical replicates and EC50 values were calculated by GraphPad Prism v8.

[2] = system: 2102EP (EC); assay: XTT cell viability assay, 2102EP; assay type: cell-based; settings: Homo sapiens, read-out: EC50 colour/symbol code, EC 2102EP
Protocol: as §1

[3] = system: JAR (CC); assay: XTT cell viability assay, JAR; assay type: cell-based; settings: Homo sapiens, after 48 h, n = 4, read-out: EC50 colour/symbol code, CC JAR
Protocol: as §1

[4] = system: GCT cell lines; assay: XTT cell viability assay, GCT cell lines (pre-screen / summary); assay type: cell-based, Human; settings: first pre-screen, XTT, read-out: EC50
Protocol: as §1

Measured: EC50

CN(C)NC(=O)CCC(=O)O [Daminozide]
> 50 µM: [1]; 48 h | [2]; 48 h | [3]

O=C(O)c1ccc(CN2CCC(CN[C@@H]3C[C@H]3c3ccccc3)CC2)cc1 [GSK2879552]
> 50 µM: [4]; Homo sapiens, GCT | [1]; after 48 h, XTT, n = 4 | [2]; after 48 h, XTT, n = 4 | [3]

NNCCc1ccc(NC(=O)CCCc2ccccc2)cc1 [Bizine]
> 50 µM: [4]

O=C(O)C1=CC(=C(c2ccc(O)c(C(=O)O)c2)c2ccc(O)c(C(=O)O)c2)C=CC1=O [Aurintricarboxylic Acid]
> 50 µM: [4]; Homo sapiens, GCT | [1]; after 48 h, XTT, n = 4 | [2]; after 48 h, XTT, n = 4 | [3]
